In patent publication US11332476B2, “Fms-like tyrosine kinase inhibitors” (3SM BIOTRON INC., priority 2018, dated 2022):
pIC50: −log10 of the molar value.

Target: T1, FLT3 (Homo sapiens, UniProt P36888)
T1 sequence (P36888 27-993): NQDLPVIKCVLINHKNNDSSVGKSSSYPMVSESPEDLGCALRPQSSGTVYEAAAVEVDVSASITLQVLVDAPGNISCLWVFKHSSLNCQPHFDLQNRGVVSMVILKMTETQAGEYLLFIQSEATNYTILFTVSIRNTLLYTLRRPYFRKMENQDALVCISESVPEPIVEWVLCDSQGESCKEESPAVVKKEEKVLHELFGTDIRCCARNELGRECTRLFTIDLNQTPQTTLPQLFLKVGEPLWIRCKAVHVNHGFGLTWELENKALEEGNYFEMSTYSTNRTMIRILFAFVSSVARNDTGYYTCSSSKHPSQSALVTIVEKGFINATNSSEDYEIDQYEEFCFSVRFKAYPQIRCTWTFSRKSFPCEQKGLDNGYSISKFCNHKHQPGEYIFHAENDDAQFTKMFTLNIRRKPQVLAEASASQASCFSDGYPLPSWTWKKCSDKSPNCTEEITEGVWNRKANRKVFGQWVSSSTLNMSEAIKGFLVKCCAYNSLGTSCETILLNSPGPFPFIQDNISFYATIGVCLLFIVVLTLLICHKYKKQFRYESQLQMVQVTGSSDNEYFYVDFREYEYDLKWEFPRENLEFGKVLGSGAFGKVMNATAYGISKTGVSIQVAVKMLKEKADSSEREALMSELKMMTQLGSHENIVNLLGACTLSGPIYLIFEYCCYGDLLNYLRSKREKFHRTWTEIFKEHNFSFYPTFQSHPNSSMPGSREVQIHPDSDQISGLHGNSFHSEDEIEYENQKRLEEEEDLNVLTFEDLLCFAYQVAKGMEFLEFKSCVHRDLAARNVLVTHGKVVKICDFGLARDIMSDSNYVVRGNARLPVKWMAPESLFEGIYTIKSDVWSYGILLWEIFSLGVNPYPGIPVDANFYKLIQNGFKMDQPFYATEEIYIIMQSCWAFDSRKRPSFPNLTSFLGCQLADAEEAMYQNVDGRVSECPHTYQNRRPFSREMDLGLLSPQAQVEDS
Test: Inhibition of FLT3, 33P-ATP kinase assay with filter-binding detection
Type: biochemical
Settings: 33P-ATP 10 uM, 2 hours at room temperature, filter-binding method
Protocol: Prepare indicated substrate in freshly prepared Base Reaction Buffer (20 mM Hepes (pH 7.5), 10 mM MgCl2, 1 mM EGTA, 0.02% Brij35, 0.02 mg/ml BSA, 0.1 mM Na3VO4, 2 mM DTT, 1% DMSO). Deliver any required cofactors to the substrate solution above. Deliver indicated kinase into the substrate solution and gently mix. The testing compounds in DMSO was added into the kinase reaction mixture by Acoustic technology (Echo550; nanoliter range) and incubated for 20 minutes at room temperature. Deliver 33P-ATP (specific activity […]) into the reaction mixture to initiate the reaction. Incubate kinase reaction for 2 hours at room temperature. Reactions are spotted onto P81 ion exchange paper. Detect kinase activity by filter-binding method.
Inhibition of FLT3 with 4-Quinolone Derivatives

| Compound | pIC50 |
| --- | --- |
| O=c1c2cc(F)ccc2sc2c(NCc3cccnc3)nc3ccccc3c12 [compound 7748, 10-fluoro-6-(pyridin-3-ylmethylamino)-12H-thiochromeno[2,3-c]quinolin-12-one] | < 6.00 |
| O=c1c2cc(F)ccc2sc2c(-n3cccc3)nc3ccccc3c12 [compound 7750, 10-fluoro-6-(1H-pyrrol-1-yl)-12H-thiochromeno[2,3-c]quinolin-12-one] | < 6.00 |
| CNCCNc1nc2ccccc2c2c(=O)c3cc(F)ccc3sc12 [compound 7752, 10-fluoro-6-(2-(methylamino)ethylamino)-12H-thiochromeno[2,3-c]quinolin-12-one] | > 7.29 |
| O=c1c2cc(F)ccc2sc2c(NCCCN3CCCC3)nc3ccccc3c12 [compound 7753, 10-fluoro-6-(3-(pyrrolidin-1-yl)propylamino)-12H-thiochromeno[2,3-c]quinolin-12-one] | < 6.00 |
| NCCNc1nc2ccccc2c2c(=O)c3cc(F)ccc3sc12 [compound 7754, 6-(2-aminoethylamino)-10-fluoro-12H-thiochromeno[2,3-c]quinolin-12-one] | > 7.29 |
| O=c1c2cc(F)ccc2sc2c(NCCN3CCCC3)nc3ccccc3c12 [compound 7755, 10-fluoro-6-(2-(pyrrolidin-1-yl)ethylamino)-12H-thiochromeno[2,3-c]quinolin-12-one] | 6.00 to 6.30 |
| O=c1c2cc(F)ccc2sc2c(NCCN3CCOCC3)nc3ccccc3c12 [compound 7756, 10-fluoro-6-((2-morpholinoethyl)amino)-12H-thiochromeno[2,3-c]quinolin-12-one] | < 6.00 |
| CCN1CCN(c2nc3ccccc3c3c(=O)c4cc(F)ccc4sc23)CC1 [compound 7757, 6-(4-ethylpiperazin-1-yl)-10-fluoro-12H-thiochromeno[2,3-c]quinolin-12-one] | 6.30 to 6.70 |
| O=c1c2cc(F)ccc2sc2c(N3CCN(Cc4ccccc4)CC3)nc3ccccc3c12 [compound 7758, 6-(4-benzylpiperazin-1-yl)-10-fluoro-12H-thiochromeno[2,3-c]quinolin-12-one] | < 6.00 |
| O=c1c2cc(F)ccc2sc2c(Nc3ccccn3)nc3ccccc3c12 [compound 7760, 10-fluoro-6-(pyridin-2-ylamino)-12H-thiochromeno[2,3-c]quinolin-12-one] | < 6.00 |
| O=c1c2cc(F)ccc2sc2c(Nc3cccnc3)nc3ccccc3c12 [compound 7761, 10-fluoro-6-(pyridin-3-ylamino)-12H-thiochromeno[2,3-c]quinolin-12-one] | < 6.00 |
| O=c1c2cc(F)ccc2sc2c(Nc3ccncc3)nc3ccccc3c12 [compound 7763, 10-fluoro-6-(pyridin-4-ylamino)-12H-thiochromeno[2,3-c]quinolin-12-one] | < 6.00 |
| O=c1c2cc(F)ccc2sc2c(NCCNc3ccccn3)nc3ccccc3c12 [compound 7765, 10-fluoro-6-((2-(pyridin-2-ylamino)ethyl)amino)-12H-thiochromeno[2,3-c]quinolin-12-one] | < 6.00 |
| O=c1c2cc(F)ccc2sc2c(-n3ccnc3)nc3ccccc3c12 [compound 7766, 10-fluoro-6-(1H-imidazol-1-yl)-12H-thiochromeno[2,3-c]quinolin-12-one] | < 6.00 |
| NCCNc1nc2ccccc2c2c(=O)c3cc(Cl)ccc3sc12 [compound 7767, 6-(2-aminoethylamino)-10-cholor-12H-thiochromeno[2,3-c]quinolin-12-one] | > 7.29 |
